Laboratory results from PubChem BioAssay (NCI).
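Five concentrations, 48 hours, 96-well plates. TGI: concentration producing complete growth inhibition.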

Columns and labels:
Experiment in all cases: NCI tumour cell line growth inhibition, 48 h
HOP-92 NSCLC = system: HOP-92 NSCLC
HCT-116 colon = system: HCT-116 colon
COLO 205 colon = system: COLO 205 colon
SNB-19 CNS = system: SNB-19 CNS
LOX IMVI melanoma = system: LOX IMVI melanoma
OVCAR-3 ovarian = system: OVCAR-3 ovarian
NCI-H226 lung = system: NCI-H226 lung
MDA-N = system: MDA-N
HCC-2998 colon = system: HCC-2998 colon
SN12C renal = system: SN12C renal
RXF 393 renal = system: RXF 393 renal
NCI/ADR-RES ovarian = system: NCI/ADR-RES ovarian
SW-620 colon = system: SW-620 colon
A498 renal = system: A498 renal
SK-MEL-28 melanoma = system: SK-MEL-28 melanoma
MDA-MB-231 breast = system: MDA-MB-231 breast
OVCAR-8 ovarian = system: OVCAR-8 ovarian
MALME-3M melanoma = system: MALME-3M melanoma
NCI-H460 lung = system: NCI-H460 lung
A549 NSCLC = system: A549 NSCLC
MDA-MB-435 = system: MDA-MB-435
UO-31 renal = system: UO-31 renal
HT29 colon = system: HT29 colon
RPMI-8226 leukemia = system: RPMI-8226 leukemia
SF-268 CNS = system: SF-268 CNS
SF-295 CNS = system: SF-295 CNS
DU-145 prostate = system: DU-145 prostate
ACHN renal = system: ACHN renal
BT-549 breast = system: BT-549 breast
KM12 colon = system: KM12 colon
MOLT-4 leukemia = system: MOLT-4 leukemia
PC-3 prostate = system: PC-3 prostate
HOP-62 NSCLC = system: HOP-62 NSCLC
NCI-H23 lung = system: NCI-H23 lung
NCI-H522 lung = system: NCI-H522 lung
CCRF-CEM leukemia = system: CCRF-CEM leukemia
OVCAR-5 ovarian = system: OVCAR-5 ovarian
M14 melanoma = system: M14 melanoma
TK-10 renal = system: TK-10 renal
U251 CNS = system: U251 CNS
SR leukemia = system: SR leukemia
SK-MEL-5 melanoma = system: SK-MEL-5 melanoma
IGROV1 ovarian = system: IGROV1 ovarian
SK-OV-3 ovarian = system: SK-OV-3 ovarian
MCF7 breast = system: MCF7 breast
786-0 renal = system: 786-0 renal
CAKI-1 renal = system: CAKI-1 renal
UACC-257 melanoma = system: UACC-257 melanoma
HL-60(TB) leukemia = system: HL-60(TB) leukemia
HCT-15 colon = system: HCT-15 colon
SF-539 CNS = system: SF-539 CNS
UACC-62 melanoma = system: UACC-62 melanoma
T-47D breast = system: T-47D breast
OVCAR-4 ovarian = system: OVCAR-4 ovarian
EKVX NSCLC = system: EKVX NSCLC
SK-MEL-2 melanoma = system: SK-MEL-2 melanoma
K-562 leukemia = system: K-562 leukemia
SNB-75 CNS = system: SNB-75 CNS

CC(NC(=O)OC(C)(C)C)C(=O)NC(Cc1ccccc1)C(=O)NCC(=O)ON=C1CCCC1 (stereo not given)
TGI (HOP-92 NSCLC): > 100 µM | TGI (HCT-116 colon): > 100 µM | TGI (COLO 205 colon): > 100 µM | TGI (SNB-19 CNS): > 100 µM | TGI (LOX IMVI melanoma): > 100 µM | TGI (OVCAR-3 ovarian): > 100 µM | TGI (NCI-H226 lung): > 100 µM | TGI (MDA-N): > 100 µM | TGI (HCC-2998 colon): > 100 µM | TGI (SN12C renal): > 100 µM | TGI (RXF 393 renal): > 100 µM | TGI (NCI/ADR-RES ovarian): > 100 µM | TGI (SW-620 colon): > 100 µM | TGI (A498 renal): > 100 µM | TGI (SK-MEL-28 melanoma): > 100 µM | TGI (MDA-MB-231 breast): > 100 µM | TGI (OVCAR-8 ovarian): > 100 µM | TGI (MALME-3M melanoma): > 100 µM | TGI (NCI-H460 lung): > 100 µM | TGI (A549 NSCLC): > 100 µM | TGI (MDA-MB-435): > 100 µM | TGI (UO-31 renal): > 100 µM | TGI (HT29 colon): > 100 µM | TGI (RPMI-8226 leukemia): > 100 µM | TGI (SF-268 CNS): > 100 µM | TGI (SF-295 CNS): > 100 µM | TGI (DU-145 prostate): > 100 µM | TGI (ACHN renal): > 100 µM | TGI (BT-549 breast): > 100 µM | TGI (KM12 colon): > 100 µM | TGI (MOLT-4 leukemia): > 100 µM | TGI (PC-3 prostate): > 100 µM | TGI (HOP-62 NSCLC): > 100 µM | TGI (NCI-H23 lung): > 100 µM | TGI (NCI-H522 lung): > 100 µM | TGI (CCRF-CEM leukemia): > 100 µM | TGI (OVCAR-5 ovarian): > 100 µM | TGI (M14 melanoma): > 100 µM | TGI (TK-10 renal): > 100 µM | TGI (U251 CNS): > 100 µM | TGI (SR leukemia): > 100 µM | TGI (SK-MEL-5 melanoma): > 100 µM | TGI (IGROV1 ovarian): > 100 µM | TGI (SK-OV-3 ovarian): > 100 µM | TGI (MCF7 breast): > 100 µM | TGI (786-0 renal): > 100 µM | TGI (CAKI-1 renal): > 100 µM | TGI (UACC-257 melanoma): > 100 µM | TGI (HL-60(TB) leukemia): > 100 µM | TGI (HCT-15 colon): > 100 µM | TGI (SF-539 CNS): > 100 µM | TGI (UACC-62 melanoma): > 100 µM | TGI (T-47D breast): > 100 µM | TGI (OVCAR-4 ovarian): > 100 µM | TGI (EKVX NSCLC): > 100 µM | TGI (SK-MEL-2 melanoma): > 100 µM | TGI (K-562 leukemia): > 100 µM | TGI (SNB-75 CNS): > 100 µM

C[C@]12CCC3c4ccc(O)cc4CC[C@H]3C1CC(=O)NC2=O (stereo not given in full)
TGI (HOP-92 NSCLC): > 10 µM | TGI (HCT-116 colon): > 10 µM | TGI (COLO 205 colon): > 10 µM | TGI (SNB-19 CNS): > 10 µM | TGI (LOX IMVI melanoma): > 10 µM | TGI (OVCAR-3 ovarian): > 10 µM | TGI (NCI-H226 lung): > 10 µM | TGI (MDA-N): > 10 µM | TGI (HCC-2998 colon): > 10 µM | TGI (SN12C renal): > 10 µM | TGI (RXF 393 renal): > 10 µM | TGI (NCI/ADR-RES ovarian): > 10 µM | TGI (SW-620 colon): > 10 µM | TGI (A498 renal): > 10 µM | TGI (SK-MEL-28 melanoma): > 10 µM | TGI (MDA-MB-231 breast): > 10 µM | TGI (OVCAR-8 ovarian): > 10 µM | TGI (MALME-3M melanoma): > 10 µM | TGI (NCI-H460 lung): > 10 µM | TGI (A549 NSCLC): > 10 µM | TGI (MDA-MB-435): > 10 µM | TGI (UO-31 renal): > 10 µM | TGI (HT29 colon): > 10 µM | TGI (RPMI-8226 leukemia): > 10 µM | TGI (SF-268 CNS): > 10 µM | TGI (SF-295 CNS): > 10 µM | TGI (DU-145 prostate): > 10 µM | TGI (ACHN renal): > 10 µM | TGI (BT-549 breast): > 10 µM | TGI (KM12 colon): > 10 µM | TGI (MOLT-4 leukemia): > 10 µM | TGI (PC-3 prostate): > 10 µM | TGI (HOP-62 NSCLC): > 10 µM | TGI (NCI-H23 lung): > 10 µM | TGI (CCRF-CEM leukemia): > 10 µM | TGI (OVCAR-5 ovarian): > 10 µM | TGI (M14 melanoma): > 10 µM | TGI (TK-10 renal): > 10 µM | TGI (U251 CNS): > 10 µM | TGI (SR leukemia): > 10 µM | TGI (SK-MEL-5 melanoma): > 10 µM | TGI (IGROV1 ovarian): > 10 µM | TGI (SK-OV-3 ovarian): > 10 µM | TGI (MCF7 breast): > 10 µM | TGI (786-0 renal): > 10 µM | TGI (CAKI-1 renal): > 10 µM | TGI (UACC-257 melanoma): > 10 µM | TGI (HL-60(TB) leukemia): > 10 µM | TGI (HCT-15 colon): > 10 µM | TGI (SF-539 CNS): > 10 µM | TGI (T-47D breast): > 10 µM | TGI (OVCAR-4 ovarian): > 10 µM | TGI (SK-MEL-2 melanoma): > 10 µM | TGI (K-562 leukemia): > 10 µM

O=S(=O)(O)c1cc(N=Nc2cccc3ccccc23)c(O)c2ncccc12
TGI (HOP-92 NSCLC): > 100 µM | TGI (HCT-116 colon): > 100 µM | TGI (COLO 205 colon): > 100 µM | TGI (SNB-19 CNS): > 100 µM | TGI (LOX IMVI melanoma): > 100 µM | TGI (OVCAR-3 ovarian): > 100 µM | TGI (NCI-H226 lung): 85.8 µM | TGI (MDA-N): > 100 µM | TGI (SN12C renal): > 100 µM | TGI (RXF 393 renal): > 100 µM | TGI (NCI/ADR-RES ovarian): > 100 µM | TGI (SW-620 colon): > 100 µM | TGI (A498 renal): > 100 µM | TGI (SK-MEL-28 melanoma): > 100 µM | TGI (MDA-MB-231 breast): > 100 µM | TGI (OVCAR-8 ovarian): > 100 µM | TGI (NCI-H460 lung): 69.4 µM | TGI (A549 NSCLC): > 100 µM | TGI (MDA-MB-435): > 100 µM | TGI (HT29 colon): 83.5 µM | TGI (RPMI-8226 leukemia): > 100 µM | TGI (SF-295 CNS): > 100 µM | TGI (DU-145 prostate): > 100 µM | TGI (ACHN renal): > 100 µM | TGI (BT-549 breast): > 100 µM | TGI (KM12 colon): > 100 µM | TGI (MOLT-4 leukemia): > 100 µM | TGI (PC-3 prostate): > 100 µM | TGI (HOP-62 NSCLC): > 100 µM | TGI (NCI-H23 lung): > 100 µM | TGI (CCRF-CEM leukemia): > 100 µM | TGI (OVCAR-5 ovarian): > 100 µM | TGI (M14 melanoma): > 100 µM | TGI (TK-10 renal): > 100 µM | TGI (U251 CNS): > 100 µM | TGI (SR leukemia): 65.7 µM | TGI (SK-MEL-5 melanoma): > 100 µM | TGI (IGROV1 ovarian): > 100 µM | TGI (SK-OV-3 ovarian): > 100 µM | TGI (MCF7 breast): > 100 µM | TGI (786-0 renal): > 100 µM | TGI (CAKI-1 renal): > 100 µM | TGI (UACC-257 melanoma): > 100 µM | TGI (HL-60(TB) leukemia): > 100 µM | TGI (HCT-15 colon): > 100 µM | TGI (SF-539 CNS): > 100 µM | TGI (UACC-62 melanoma): > 100 µM | TGI (T-47D breast): > 100 µM | TGI (OVCAR-4 ovarian): > 100 µM | TGI (EKVX NSCLC): > 100 µM | TGI (SK-MEL-2 melanoma): > 100 µM | TGI (K-562 leukemia): > 100 µM | TGI (SNB-75 CNS): > 100 µM
